Patent publication EP4663632A1, “COMPOUNDS USEFUL FOR THE MODULATION OF THE ACTIVITY OF STING” (Sulis Therapeutics ApS, priority 2024, dated 2025)
Values joined by “and” are separate entries in the source; they are usually repeats but may differ in a detail not shown here. Identical values can stand only once.

Legend:
STING [1] = target: T1, STING (Mus musculus, UniProt Q3TBT3); assay: IFN-β secretion from mouse RAW264.7 cells treated with diABZI; format: cell-based; set-up: endogenous in cells; host or cells: RAW264.7 mouse cells; conditions: 1.8 µM diABZI c3 only
T1 sequence (Q3TBT3 1-378): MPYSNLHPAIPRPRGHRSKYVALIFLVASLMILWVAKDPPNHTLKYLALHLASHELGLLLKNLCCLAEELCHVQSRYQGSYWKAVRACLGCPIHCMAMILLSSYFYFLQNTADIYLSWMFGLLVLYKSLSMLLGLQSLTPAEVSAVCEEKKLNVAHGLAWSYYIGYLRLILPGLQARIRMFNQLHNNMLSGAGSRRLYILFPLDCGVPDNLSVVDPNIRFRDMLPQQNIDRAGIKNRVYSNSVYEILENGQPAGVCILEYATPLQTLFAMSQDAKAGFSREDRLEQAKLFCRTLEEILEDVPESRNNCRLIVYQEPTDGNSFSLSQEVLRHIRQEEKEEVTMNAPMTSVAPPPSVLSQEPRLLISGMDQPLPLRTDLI
Experimental: As expected, RAW264.7 cells treated with 1.8 µM diABZI c3 increased IFN-β secretion, resulting in a media concentration of around 1000 pg/mL. In contrast, cells treated with 1.8 µM diABZI c3 and 0.05 µM Example compounds 14, 16 or 24 reduced this expression to approximately 500 pg/mL.

STING [2] = target: T2, STING (Homo sapiens, UniProt Q86WV6); assay: Western Blot analysis of STING phosphorylation in human fibroblast cells (STING agonism); format: cell-based; set-up: host or cells: HFF-1 human foreskin fibroblasts; conditions: control, 300nM diABZI C3 alone
Experimental: Human fibroblast were treated with a titration of E22, E9, E14 and E16 (7.2µM-3.6nM) for 24h prior to cell lysis and subsequently total STING, pSTING and Vinculin were assessed by western blot using rabbit anti-STING (1:1000), anti-pSTING (1:1000), anti-Vinculin (1:1000) and 2nd anti-rabbit-HRP (1:10.000) or anti-mouse-HRP (1:7500). Proteins were visualized using ImageQuant800. Control cells included untreated cells and cells treated with 300nM diABZI C3.

STING [3] = target: T2, STING; assay: Inhibition of STING-agonist-induced IFN-β and CXCL10 release by Compounds A9 and A11; format: cell-based; set-up: host or cells: HFF-1 human foreskin fibroblasts
Experimental: HFF-1 cells were also assessed for inhibition of STING-agonist-induced IFN-β and CXCL10 release in cells treated with Compounds A9 and A11. […] In contrast, pre-treating cells for 1 to 2 hours prior to diABZI c3, simultaneous treatment with A9 and diABZI c3, or pre-treating cells for 15 minutes with diABZI c3 followed by A9 treatment led to a decrease in the IFN media concentration to ~100 U/mL. […] In contrast, cells pre-treated for 1 to 2 hours prior to diABZI c3, simultaneous treatment with A9 and diABZI c3, or pre-treating cells for 15 minutes with diABZI c3 followed by A9 treatment led to a decrease in the CXCL10 media concentration to […] (Figure 9B, unfiled bars).
In contrast, pre-treating cells for 1 to 2 hours prior to diABZI c3, simultaneous treatment with A11 and diABZI c3, or pre-treating cells for 15 minutes with diABZI c3 followed by A11 treatment led to a decrease in the IFN media concentration to -10 - 20 U/mL. […] In contrast, cells pre-treated for 1 to 2 hours prior to diABZI c3, simultaneous treatment with A11 and diABZI c3, or pre-treating cells for 15 minutes with diABZI c3 followed by A11 treatment led to a decrease in the CXCL10 media concentration to -10 - 20 pg/mL (Figure 9B; filled bars).

STING [4] = target: T2, STING; assay: Western Blot analysis of inhibition of STING activation in HFF-1 cells; format: cell-based; set-up: host or cells: HFF-1 human foreskin fibroblasts; conditions: agonist only (-): 300 nM diABZI c3 or 8 µg/mL cGAMP
Experimental: To assess whether S1 STING ligands inhibit STING activation, primary human skin fibroblasts (Figure 5) or HFF-1 cells (Figure 6) were treated with various compounds which comprise only an S1 ligand domain and a Linker domain before undergoing Western Blot analysis as described below.
The cells were lysed and analysed on WB. […] The WB membrane was probed for p-STING, STING, p-IRF3, p-TBK1, and Vinculin.

STING [5] = target: T2, STING; assay: Inhibition of STING-agonist-induced IFN-β release in H596 cells (H596 STING inhibition assay); format: cell-based; conditions: 24h with compound, then 0.3 µM GSK STING agonist, 6h; ELISA
Experimental: Cell supernatants were analysed for IFN-β release using DuoSet human IFN-β ELISA (R&D systems, DY-814) following manufactures protocol except using 96-well, half-volume plates from Corning and subsequently use half volume for all steps throughout the protocol. In brief, plates were coated o/n with a 130x dilution of capturing antibody in PBS. Wells were washed 3x with PBS-T20 followed by blocking with 1% BSA diluted in TBS-T20 for 1h. Wells were washed 3x with PBS-T20 and standards (n=2) and samples (n=3) were added to the plate and incubated for 2h at rt. Wells were washed 3x with PBS-T20 and detection antibody diluted 1:60 in 1% BSA in PBS was added to each well and incubated for 2h at rt. Plates were washed 3x with PBS-T20 and Streptavidin-HRP diluted 1:40 in 1% BSA in PBS was added pr well and incubated for 30 min at rt. The wells were washed 4x with PBS-T20 and TMB One Substrate (Promega) was added and incubated for 5-10 min in the dark. When fully developed, 1 mmol/L Sulfuric acid was added to stop the reaction. Signals were measured using BioTek Synergy H1 plate reader at 450nm and 570nm (reference).
Raw data values were quantified based on the standard curve using blank subtracted Δ450nm-570nm values generated using the Gen5 software connected to the plate reader. Concentrations were plotted into GraphPad Prism to calculate EC50 values using a 4-parameter non-linear regression fitting curve, bottom constrains set for >0.
To determine cellular effects of test compounds, we assessed inhibition of STING-agonist-induced IFN-β release in H596 cells (ATCC, HTB-178). Cells were seeded at a density of 25.000 cells/well in 96-well Nunclon Delta surface treated culture plate in RPMI-1640 growth medium (supplemented with 10% FBS, 1% Pen-strep). Cells were incubated over-night at 37°C 5% CO2 to allow adhesion. Next morning growth medium was renewed and a 10x concentration, 3-step dilution series of test compounds diluted in growth medium (5% DMSO) were added to the appropriate well. Final DMSO concentration was 0.5%. Cells were further incubated for 24h followed by incubation with a 10x concentration of GSK STING agonist (CAS number: 2138299-34-8), final concentration was 0.3 µM. Cells culture plates were further incubated, and supernatants were harvested after 6h and immediately stored at -20°C until determination of IFN-β release.
For ELISA and data analysis, the methods described above for HFF-1 cells were applied.

STING [6] = target: T2, STING; assay: Western Blot analysis for STING degradation (DC50) in HFF-1 cells; format: cell-based; set-up: host or cells: HFF-1 human foreskin fibroblasts; conditions: 24h; reference protein vinculin
Experimental: To assess STING degradation in human foreskin fibroblasts HFF-1 cells (ATCC, SCRC-1041) cells were seeded at a density of 60.000 cells/well in 24-well Nunclon Delta surface treated culture plate in DMEM growth medium (supplemented with 10% FBS, 1% Pen-strep). Cells were incubated over-night at 37°C 5% CO2 to allow adhesion. Next day growth medium was renewed and a 5x concentration of test compounds (2.5% DMSO) diluted in growth medium were added to the appropriate well. The final DMSO concentration were 0.5%. Cell culture plates were returned to the incubator for additional 24h.
(§1) For cell lysing for Western Blot analysis cell culture plates were brought to ice, supernatant was removed by aspiration and cells washed 2x in ice-cold DPBS. Cells were lysed in 65 µL of RIPA buffer supplemented with cOmplete ULTRA Tablets protease inhibitor cocktail, PIERCE Phosphatase inhibitor mini tablet, Benzonase and 10mM NaF for 20 min on ice. Lysates were collected, cleared by centrifugation (13000xg for 10 min at 4°C). Samples were either analysed directly or stored at -80°C until analysis.
(§2) For Western Blotting, total protein concentration in each lysate was determined using PIERCE Gold BCA Assay kit according to manufactures protocol. 6 µg of total protein was mixed with 2x Laemmli buffer containing DTT, boiled for 5 min at 95°C, cooled on ice and loaded into each well of a 4-20% Criterion TGX gel. Proteins were separated by electrophoresis, by running for 1h at 150V. After separation proteins were blotted onto a PVDF membrane by semi-dry transfer using Trans-Blot turbo system at pre-defined BioRad MIDI protocol; 25V, 1A (fixed) for 30 min. Membranes were blocked for 1h in 5% skim milk in TBS-T20 on a rocker at room temperature followed by washing and exposure to primary antibodies against human STING 1:1000 (Cell Signalling, #13647) or loading controls Vinculin 1:1000 (Cell Signalling, #13901) or beta-Actin 1:10000 (Sigma, A5441) all diluted in 5% BSA in TBS-T20. Membranes were probed over night at 4°C on a rocker. Membranes were washed 3x in TBS-T20 followed by exposure to secondary HRP-conjugated anti-rabbit antibody or HRP-conjugated anti-mouse antibody diluted 1:10000 in 5% skim milk in TBS-T20 as appropriate. Membranes were incubated for 1h at room temperature on a rocker, then washed 3x in TBS-T20.
(§3) For generating DC50 values, the intensity of individual bands was measured using imaged and expression levels were calculated as a ratio of STING intensities vs. Reference protein intensities and normalized to DMSO control. The normalized ratios were plotted on a XY curve in GraphPad Prism where DC50 was estimated using a 4-parameter non-linear regression fitting curve.

[7] = target: C-terminal domain (CTD) of human STING (Homo sapiens, UniProt Q86WV6); assay: STING binding FP assay III; set-up: recombinant human STING protein (155-379); conditions: 10 nM STING (FP assay III according to the text); read-out: STING binding FP assay II, IC50
Procedure, shortened: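 FP competition assay using 10 nM recombinant human STING (155-379) and 4 nM fluorescein-labelled STING ligand in 150 mM NaCl, 50 mM HEPES pH 7.5, 1 mM DTT with Tween-20. Plates were incubated 20 min at room temperature and read at Ex 485/Em 528 nm. IC50 values came from four-parameter fits.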

STING [8] = target: T2, STING; assay: Western Blot analysis for STING degradation in H596 cells; format: cell-based; conditions: 24h; reference protein beta-actin
Experimental: as §1, §2, §3
To assess STING degradation in H596 cells (ATCC, HTB-178) cells were seeded at a density of 100.000 cells/well in 24-well Nunclon Delta surface treated culture plate in RPMI-1640 growth medium (supplemented with 10% FBS, 1% Pen-strep). Cells were incubated over-night at 37°C 5% CO2 to allow adhesion. Next day growth medium was renewed and a 5x concentration of test compounds (2.5% DMSO) diluted in growth medium were added to the appropriate well. Final DMSO concentration was 0.5%. Cell culture plates were returned to the incubator for additional 24h. Final test compound concentrations were 0.22 µM, 0.67 µM, 2 µM and 6 µM.
For cell lysis, western blotting and data analysis, the methods described above for HFF-1 cells were applied.

Sequence of C-terminal domain (CTD) of human STING (Q86WV6 155-379): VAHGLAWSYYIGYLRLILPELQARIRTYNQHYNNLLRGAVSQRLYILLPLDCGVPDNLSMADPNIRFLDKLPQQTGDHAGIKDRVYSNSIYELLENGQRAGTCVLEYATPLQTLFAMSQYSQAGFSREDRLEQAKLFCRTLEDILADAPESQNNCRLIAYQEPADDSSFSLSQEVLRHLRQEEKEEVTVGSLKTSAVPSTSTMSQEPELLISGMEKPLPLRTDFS
T2 sequence (Q86WV6 whole entry): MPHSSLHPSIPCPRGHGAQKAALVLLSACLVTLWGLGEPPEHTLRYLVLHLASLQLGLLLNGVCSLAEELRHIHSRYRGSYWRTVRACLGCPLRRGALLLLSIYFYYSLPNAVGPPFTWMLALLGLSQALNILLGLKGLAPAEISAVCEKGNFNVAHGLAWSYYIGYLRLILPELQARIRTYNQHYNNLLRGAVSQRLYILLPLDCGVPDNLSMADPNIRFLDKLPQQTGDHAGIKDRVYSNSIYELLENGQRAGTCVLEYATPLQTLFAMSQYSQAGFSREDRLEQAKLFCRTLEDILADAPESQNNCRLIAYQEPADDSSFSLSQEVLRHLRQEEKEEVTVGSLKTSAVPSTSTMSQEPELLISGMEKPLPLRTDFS

SMILES	IFN-β media concentration (STING [1])	STING phosphorylation (pSTING) (STING [2])	CXCL10 media concentration (STING [3]; cells treated with diABZI c3 alone (0.3 µM))	IFN media concentration (STING [3]; cells treated with only diABZI c3 (0.3 µM), tris(hydrochloride))	phosphorylation of STING, IRF3 and TBK1 (STING [4])	EC50 (STING [5]) [nM]	DC50 (STING [6]) [nM]	IC50 [7] [nM]	DC50 (STING [8]) [nM]
CCn1nc(C)cc1C(=O)Nc1nc2cc(C(N)=O)cc(OC)c2n1C/C=C/Cn1c(NC(=O)c2cc(C)nn2CC)nc2cc(C(N)=O)cc(OCCCN3CCOCC3)c21.Cl.Cl.Cl [diABZI c3, (E)-1-(4-(5-carbamoyl-2-(1-ethyl-3-methyl-1H-pyrazole-5-carboxamido)-7-(3-morpholinopropoxy)-1H-benzo[d]imidazol-1-yl)but-2-en-1-yl)-2-(1-ethyl-3-methyl-1H-pyrazole-5-carboxamido)-7-methoxy-1H-benzimidazole-5-carboxamide tris(hydrochloride), reference compound]	around 1000 pg/mL	STING was phosphorylated	~ 60 pg/mL	~ 200 U/mL and ~ 100 U/mL	STING was phosphorylated and activated as were the downstream STING effectors IRF3 and TBK1	–	–	–	–
CCn1nc(C)cc1C(=O)N=c1n(C)c2cc(C(N)=O)ccc2n1CCC(CCn1c(=NC(=O)c2cc(C)nn2CC)n(C)c2cc(C(N)=O)ccc21)OCC(=O)NCCOCCOCCOCCOCCC(=O)NCCCCC(=O)N[C@H]1C[C@@H](C(=O)N[C@@H]2CCCc3ccccc32)N(C(=O)[C@@H](NC(=O)[C@H](C)NC)C2CCCCC2)C1 (some centres unmarked) [Example 10]	–	–	–	–	–	200 to 1000	< 200	4.5	–
CCn1nc(C)cc1C(=O)N=c1n(C)c2cc(C(N)=O)ccc2n1CCC(CCn1c(=NC(=O)c2cc(C)nn2CC)n(C)c2cc(C(N)=O)ccc21)OCC(=O)NCCOCCOCCOCCOCCC(=O)N1CCN(C(=O)CCOCCC(=O)NCCCCOc2cc(-c3scnc3C)ccc2CNC(=O)[C@@H]2C[C@@H](O)CN2C(=O)[C@@H](NC(=O)C2(F)CC2)C(C)(C)C)CC1 (some centres unmarked) [Example 20]	–	–	–	–	–	< 200	–	2.7	< 200
CCn1nc(C)cc1C(=O)N=c1n(C)c2cc(C(N)=O)ccc2n1CCC(CCn1c(=NC(=O)c2cc(C)nn2CC)n(C)c2cc(C(N)=O)ccc21)OCC(=O)NCCOCCOCCOCCOCCC(=O)N1CCN(C(=O)CCC(=O)NCCCCOc2cc(-c3scnc3C)ccc2CNC(=O)[C@@H]2C[C@@H](O)CN2C(=O)[C@@H](NC(=O)C2(F)CC2)C(C)(C)C)CC1 (some centres unmarked) [Example 19]	–	–	–	–	–	< 200	–	7.1	< 200
